Data as given in patent US7989203B2, “Methods for use of apoptotic cells to deliver antigen to dendritic cells for induction or tolerization of T cells” (The Rockefeller University, priority 1998, dated 2011).
“Also recorded” adds a separate entry of the source. Read-outs that look alike come from different tables or passages of the source. *: point of attachment. Cbz = O=C(OCc1ccccc1)*

Experiments:
[1] = system: immature DCs; format: cell-based, human; details: for Percent Inhibition of phagocytosis of apoptotic cells: immature DC/apoptotic cell coculture, averages of 2-4 experiments
[2] = system: influenza-infected monocytes; format: cell-based, human; details: concentrations which inhibited apoptosis of the infected monocytes; 7 days
[3] = system: influenza-infected monocytes; format: cell-based, human; details: determined by TUNEL; without affecting expression of viral proteins
[4] = system: DCs; format: cell-based, human
[5] = molecular target: protein kinase C; details: footnote to Table II; cited from earlier work
[6] = molecular target: phospholipase D; details: footnote to Table II; cited from earlier work
[7] = system: DCs; assay: Y-Ae epitope (I-Ab/I-E peptide complex) formation on DCs cultured with B blasts (FACS); format: cell-based, mouse; details: DCs cultured 20 h with B blasts
Protocol: [FIG. 11B]: Y-Ae epitope formation is blocked by NH4Cl. DCs were cultured 20 h with B blasts with or without NH4Cl at 5-20 mM. The cultures were stained for Y-Ae and CD86.
Antibodies. The Y-Ae hybridoma was generously provided by Dr. C. Janeway, Yale University, New Haven Conn. and grown serum-free. The IgG2b antibody was purified on protein A sepharose, biotinylated, and used in the FACS along with PE-streptavidin to detect MHC class II-peptide complexes (75,76) with a mouse IgG2b anti-human TCR antibody as the non-reactive control [PharMingen, San Diego Calif.]. The cells were double labeled for FACS and for microscopy with FITC antibodies to CD8, CD11c, CD86, I-Ab [AF6-120.1], 1-Ad, and I-E [14-4-4S][PharMingen].
Capture of cell-derived peptides in vitro. Bone marrow DCs were generated in 24 well plates for 6 days in GM-CSF, gently washed to remove mature floating DCs, and then fed B blasts, human cells, or a peptide [residues 56-73 of 1-Eα]. Before adding I-E^+ cells or peptide, the DCs were immature, since much of the MHC class II was in intracellular lysosomal compartments and CD86 was not expressed at the surface (84) After uptake of I-E, the DCs matured with high levels of surface MHC II and CD86.

## O=C(O)c1cc(N(Cc2ccccc2O)Cc2cc(O)ccc2O)ccc1O [LA, Lavendustin A]
[1]; 10 μM
  Percent Inhibition of phagocytosis of apoptotic cells: 14%
[1]; 40 μM
  Percent Inhibition of phagocytosis of apoptotic cells: 41.5%

## TSP: purified TSP (thrombospondin)
[1]; concentration not given
  inhibition of phagocytosis of apoptotic cells by immature DCs (in words): nor the addition of purified TSP to DC/apoptotic cell co-cultures has an inhibitory effect

## O=C(O)CN(CCN(CC(=O)O)CC(=O)O)CC(=O)O [EDTA]
[1]
  inhibition of phagocytosis of apoptotic cells by immature DCs (in words): inhibitory

## Cbz-Val-Ala-Asp-aldehyde
[2]
  generation of virus-specific CTLs after transfer of medium from treated infected monocytes to T cells and uninfected DCs: virus-specific CTLs were not generated
[3]
  apoptosis of influenza-infected monocytes: block apoptosis

## C=C1[C@@H](C)[C@H]2[C@H](Cc3ccccc3)NC(=O)[C@]23[C@H](OC(C)=O)/C=C/[C@@](C)(O)C(=O)[C@@H](C)C/C=C/[C@H]3[C@@H]1O [Cytochalasin D]
[1]; concentration not given
  inhibition of phagocytosis of apoptotic cells by immature DCs (in words): blocked uptake

## O=C(O)c1cc(N(Cc2ccccc2O)Cc2ccccc2O)ccc1O [LB, Lavendustin B]
[1]; 10 μM
  Percent Inhibition of phagocytosis of apoptotic cells: 0%
[1]; 40 μM
  Percent Inhibition of phagocytosis of apoptotic cells: 0%

## CC(=O)N[C@@H](CSC(=O)[C@]1([C@@H](O)C(C)C)NC(=O)[C@H](C)[C@@H]1O)C(=O)O [Lactacystin]
[4]; unpublished data, concentration not given
  antigen presentation by the uninfected DCs: only partially blocked

## C[C@H]1CCC/C=C/[C@@H]2C[C@H](O)C[C@H]2[C@H](O)/C=C/C(=O)O1 [BFA, Brefeldin A]
[4]; DCs preincubated with 6 ug/ml
  DCs ability to present antigenic material on MHC class I: completely inhibited

## COc1ccc2c(c[n+](C)c3c4cc5c(cc4ccc23)OCO5)c1OC.[Cl-] [CC, Chelethrine chloride]
[5]
  IC50: 660 nM
[1]; 12 μM
  Percent Inhibition of phagocytosis of apoptotic cells: 4%

## Herbamycin A
[6]
  IC50, PDGF-induced phospholipase D activation: ^§Herbamycin A is a potent cell-permeable protein tyrosine kinase inhibitor and inhibits PDGF-induced phospholipase D activation (IC50 = 8 μg/ml) in a dose dependant manner.
[1]; 1.8 μM
  Percent Inhibition of phagocytosis of apoptotic cells: 6.5%
[1]; 9 μM
  Percent Inhibition of phagocytosis of apoptotic cells: 49%
[1]; 18 μM
  Percent Inhibition of phagocytosis of apoptotic cells: 66.5%

## Cl.N [NH4Cl, ammonium chloride]
[7]; 5 mM
  Y-Ae development (epitope formation): partially
[7]; 20 mM
  Y-Ae development (epitope formation): totally blocked; also recorded: completely blocked
[4]
  DCs ability to present antigenic material on MHC class I: completely inhibited
